This passage reports IC50 results from patent US20130072519A1, “2-PHENYL BENZOYLAMIDES” (priority 2010, published 2013).

By IC50 is commonly meant the concentration at which inhibition is half-maximal. High values mean weaker potency, low ones greater potency.

The subject of one test is Apolipoprotein B Secretion from HepG2 Cells. The experiment in a line: Inhibition of Apolipoprotein B secretion from HepG2 cells (ELISA). Type of test: cell-based, human. The settings on record: HepG2 cells, 22-24 hours incubation, ApoB ELISA; Low/High IC50 columns give the 95% confidence interval. The protocol: Inhibition of Apolipoprotein B Secretion from HepG2 Cells
To assess the inhibitory effect of the compounds of the invention on ApoB production, an endogenously ApoB producing cell line, HEPG2, was implemented in an in vitro ELISA assay. HEPG2 cells are plated at 25,000 per well (96-well plates) in media consisting of DMEM Low Glucose, 1% NEAA (non-essential amino acids), 10% FBS (heat inactivated), 1% L-Glutamine, and 1% Antimycotic-Antibiotic and incubated for 16-18 hours at 37° C. and 5% CO2. After the 16-18 hour incubation, a 12 point half-log serial of the inhibitor (1000 nM-0.003 nM) is prepared, and 1.5 ul of the serial dilution is added to HEPG2 cells, which have had their media decanted and replaced with 148 ul of fresh media, and the cells are incubated for 22-24 hours at 37° C. and 5% CO2. Two and a half hours before the 22-24 hour incubation period is completed, Nunc Maxisorp plates are coated with 100 ul of primary (coating) antibody (goat anti-apoB), diluting to a ratio of 1:1000 in 1% Carbonate-Bicarbonate Coating Buffer and incubated for at least 2 hours at room temperature before the primary antibody is decanted and the wells of the microplate are washed with 200 ul of washing buffer (1% PBS, 0.05% Tween20). Next, 200 ul of blocking buffer (1% PBS, 1:500 Western Block, 5 mg/ml BSA) is added to the wells of the microplate, and incubated for at least 30 mins. Following the 22-24 hours incubation period, cell plates are removed from the incubator, 20 ul of supernatant from each well is aspirated, added to a corresponding well in 96 well plate containing 140 ul of diluent (1:2-Blocking Buffer: Washing Buffer), and mixed. Then, 120 ul is aspirated from the dilutent-supernatant plate, added to the blocked Nunc Maxisorp 96 well plate, and placed at room temperature on a shaker to mix for at least 2 hours. The secondary (capture) antibody (mouse anti-human apoB) is prepared at a ratio of 1:4000, and the detection antibody (goat anti-mouse HRP conjugated antibody) at a ratio of 1:10,000. For each antibody, 100 ul is added to each well of the microplate and the microplate is incubated at room temperature for 2 hours, washing the microplates between each antibody addition. Colorimetric development is achieved by adding 50 ul of TMB reagent to each well, incubating for 5 mins at room temperature, then adding 50 ul of 2M Sulfuric Acid to each well. Absorbance at 450 nm is monitored in an Envision plate reader to measure the amount of ApoB formed.
Results reported as average IC50, low and high IC50 range (95% confidence interval).
`CCOC(=O)C1(COC(=O)Cc2ccc(NC(=O)c3ccccc3-c3ccc(C(F)(F)F)cc3)c(C(=O)N(C)C)c2)CCc2ccccc21` (stereo not drawn) [Example 35]: it took 0.46 nM to reach half-maximal inhibition (IC50).
In the case of `CCOC(=O)C1(COC(=O)Cc2ccc(NC(=O)c3ccccc3-c3ccc(C(F)(F)F)cc3)c(C(=O)N(C)C)c2)c2ccccc2C(=O)N1CC` (stereo not drawn) [Example 20], the IC50 was found to be 1.76 nM. Against the preceding compound, the IC50 is about 3.8-fold higher.
As to `CCOC(=O)C1(COC(=O)Cc2ccc(NC(=O)c3ccccc3-c3ccc(C(F)(F)F)cc3)c(C(=O)N(C)C)c2)CCCc2ccccc21` (single isomer, unassigned; (+)) [Example 46, (+)-Ethyl 1-({2-[3-(Dimethylcarbamoyl)-4-({[4′-(trifluoromethyl)biphenyl-2-yl]carbonyl}amino)phenyl]acetoxy}methyl)-1,2,3,4-tetrahydronaphthalene-1-carboxylate], the IC50 was 1.66 nM.
Compound `CCOC(=O)C1(COC(=O)Cc2ccc(NC(=O)c3ccccc3-c3ccc(C(F)(F)F)cc3)c(C(=O)N(C)C)c2)OC(=O)c2ccccc21` (stereo not drawn) [Example 31] displayed an IC50 of 10.1 nM.
Regarding `CCOC(=O)C1(COC(=O)Cc2ccc(NC(=O)c3ccccc3-c3ccc(C(F)(F)F)cc3)c(C(=O)N(C)C)c2)NC(=O)c2ccccc21` (stereo not drawn) [Example 25], it took 297 nM to reach half-maximal inhibition (IC50).
Consider `CCOC(=O)C1(COC(=O)Cc2ccc(NC(=O)c3ccccc3-c3ccc(C(F)(F)F)cc3)c(C(=O)N(C)C)c2)OC(=O)c2ccccc21` (stereo not drawn) [Example 32], for which the IC50 came to 45.5 nM.

Staying with this test, now noted: Homo sapiens, HepG2, HepG2 cells, 22-24 hours incubation, ApoB ELISA; Low/High IC50 columns give the 95% confidence interval.
`CCOC(=O)C1(COC(=O)Cc2ccc(NC(=O)c3ccccc3-c3ccc(C(F)(F)F)cc3)c(C(=O)N(C)C)c2)c2ccccc2C(=O)N1C` (racemic) [Example 4] had an IC50 of 0.846 nM. This lies in the sub-nanomolar range.
As to `Cc1cccc(C(=O)Nc2ccc(CC(=O)OCC3(C(=O)OCc4ccccc4)c4ccccc4C(=O)N3C)cc2C(=O)N(C)C)c1-c1ccc(C(F)(F)F)cc1` (racemic) [Example 8], the IC50 turned out to be 0.436 nM. Against the preceding compound, the IC50 is about 1.9-fold lower.
The same measure, in the same setting: the figure for `CCOC(=O)C1(COC(=O)Cc2ccc(NC(=O)c3ccccc3-c3ccc(C(F)(F)F)cc3)c(C(=O)N(C)C)c2)CCCc2ccccc21` (racemic) [Example 41] is 0.701 nM; for `CCOC(=O)C1(COC(=O)Cc2ccc(NC(=O)c3ccccc3-c3ccc(C(F)(F)F)cc3)c(C(=O)N(C)C)c2)c2ccccc2C(=O)N1CC(F)(F)F` (racemic) [Example 16] it is 2.73 nM.
`CCN1C(=O)c2ccccc2C1(COC(=O)Cc1ccc(NC(=O)c2cccc(C)c2-c2ccc(C(F)(F)F)cc2)c(C(=O)N(C)C)c1)C(=O)OC` (racemic) [Example 65, methyl 1-({2-[3-(dimethylcarbamoyl)-4-({[6-methyl-4′-(trifluoromethyl)biphenyl-2-yl]carbonyl}amino)phenyl]acetoxy}methyl)-2-ethyl-3-oxoisoindoline-1-carboxylate] yielded an IC50 of 0.38 nM.
Same read-out and setting: the figure for `CCOC(=O)C1(COC(=O)Cc2ccc(NC(=O)c3ccccc3-c3ccc(C(F)(F)F)cc3)c(C(=O)N(C)C)c2)CCCc2ccccc21` (single isomer, unassigned; (-)) [Example 45, (−)-Ethyl 1-({2-[3-(Dimethylcarbamoyl)-4-({[4′-(trifluoromethyl)biphenyl-2-yl]carbonyl}amino)phenyl]acetoxy}methyl)-1,2,3,4-tetrahydronaphthalene-1-carboxylate] is 1.63 nM; for `CCOC(=O)C1(COC(=O)Cc2ccc(NC(=O)c3ccccc3-c3ccc(C(F)(F)F)cc3)c(C(=O)N(C)C)c2)CCc2cccnc21` (racemic) [Example 37] it is 8.47 nM; for `CCOC(=O)[C@]1(COC(=O)Cc2ccc(NC(=O)c3ccccc3-c3ccccc3OC)c(C(=O)N(C)C)c2)c2ccccc2C(=O)N1C` [Example 75, ethyl (1R)-1-({2-[3-(dimethylcarbamoyl)-4-{[(2′-methoxybiphenyl-2-yl)carbonyl]amino}phenyl]acetoxy}methyl)-2-methyl-3-oxoisoindoline-1-carboxylate] it is 4.16 nM.
The compound `CCOC(=O)C1(COC(=O)Cc2ccc(NC(=O)c3ccccc3-c3ccc(C(F)(F)F)cc3)c(C(=O)N(C)C)c2)c2ccccc2C(=O)N1C(C)C` (racemic) [Example 14] came in with an IC50 of 2.16 nM.
Compound `COC(=O)C1(COC(=O)Cc2ccc(NC(=O)c3ccccc3-c3ccc(C(F)(F)F)cc3)c(C(=O)N(C)C)c2)CCc2ccccc21` (stereo not drawn) [Example 33] registered an IC50 of 6.5 nM.
Same read-out and setting: in the case of `CCOC(=O)C1(COC(=O)Cc2ccc(NC(=O)c3ccccc3-c3ccc(C(F)(F)F)cc3)cc2)c2ccccc2C(=O)N1C` (stereo not drawn) [Example 18] it was 23.9 nM; in that of `CCOC(=O)[C@]1(COC(=O)Cc2ccc(NC(=O)c3ccccc3-c3ccc(C(C)C)cc3)c(C(=O)N(C)C)c2)c2ccccc2C(=O)N1C` [Example 73, ethyl (1R)-1-({2-[3-(dimethylcarbamoyl)-4-{[(4′-isopropylbiphenyl-2-yl)carbonyl]amino}phenyl]acetoxy}methyl)-2-methyl-3-oxoisoindoline-1-carboxylate], 0.162 nM.
The compound `CCOC(=O)[C@]1(COC(=O)Cc2ccc(NC(=O)c3ccc(OC)cc3-c3ccc(C(C)(C)C)cc3)c(C(=O)N(C)C)c2)c2ccccc2C(=O)N1C` [Example 69, ethyl (1R)-1-({2-[4-{[(4′-tert-butyl-5-methoxybiphenyl-2-yl)carbonyl]amino}-3-(dimethylcarbamoyl)phenyl]acetoxy}methyl)-2-methyl-3-oxoisoindoline-1-carboxylate] had an IC50 of 0.18 nM.
Regarding `CCOC(=O)C1(COC(=O)Cc2ccc(NC(=O)c3cccc(C)c3-c3ccc(OC(C)C)cc3)c(C(=O)N(C)C)c2)CCc2cccnc21` (stereo not drawn) [Example 57, ethyl 7-({2-[3-(dimethylcarbamoyl)-4-{[(4′-isopropoxy-6-methylbiphenyl-2-yl)carbonyl]amino}phenyl]acetoxy}methyl)-6,7-dihydro-5H-cyclopenta[b]pyridine-7-carboxylate], the IC50 is 1.37 nM.
Same read-out and setting: in the case of `CCOC(=O)[C@]1(COC(=O)Cc2ccc(NC(=O)c3ccccc3-c3ccc(C(F)(F)F)cc3)c(C(=O)N(C)C)c2)c2ccccc2C(=O)N1C` [Example 1, Ethyl 1R-({2-[3-(dimethylcarbamoyl)-4-({[4′-(trifluoromethyl)biphenyl-2-yl]carbonyl}amino)phenyl]acetoxy}methyl)-2-methyl-3-oxoisoindoline-1-carboxylate] it was 0.495 nM.
In the case of `CCOC(=O)[C@]1(COC(=O)Cc2ccc(NC(=O)c3cccc(OC)c3-c3ccc(OC(C)C)cc3)c(C(=O)N(C)C)c2)c2ccccc2C(=O)N1C` [Example 63, ethyl (1R)-1-({2-[3-(dimethylcarbamoyl)-4-{[(4′-isopropoxy-6-methoxybiphenyl-2-yl)carbonyl]amino}phenyl]acetoxy}methyl)-2-methyl-3-oxoisoindoline-1-carboxylate], the midpoint of inhibition, the IC50, lay at 0.119 nM.
`CCOC(=O)C1(COC(=O)Cc2ccc(NC(=O)c3ccccc3-c3ccc(C(F)(F)F)cc3)c(C(=O)N(C)C)c2)OC(=O)c2ccccc21` (racemic) [Example 30] showed an IC50 of 6.5 nM.
In the case of `CCOC(=O)C1(COC(=O)Cc2ccc(NC(=O)c3ccccc3-c3ccc(C(F)(F)F)cc3)c(C(=O)N(C)C)c2)CCCc2cccnc21` (racemic) [Example 42], the IC50 stood at 0.529 nM. This IC50 lies about 12-fold lower than the previous one.
The same measure, in the same setting: in the case of `CCOC(=O)C1(COC(=O)Cc2ccc(NC(=O)c3ccc(C(F)(F)F)cc3-c3ccc(C(F)(F)F)cc3)c(C(=O)N(C)C)c2)OC(=O)c2ccccc21` (stereo not drawn) [Example 3] it was 15.7 nM; in that of `CCOC(=O)[C@]1(COC(=O)Cc2ccc(NC(=O)c3ccccc3-c3ccc(C(C)(C)C)cc3)c(C(=O)N(C)C)c2)c2ccccc2C(=O)N1C` [Example 66, ethyl (1R)-1-({2-[4-{[(4′-tert-butylbiphenyl-2-yl)carbonyl]amino}-3-(dimethylcarbamoyl)phenyl]acetoxy}methyl)-2-methyl-3-oxoisoindoline-1-carboxylate], 0.206 nM; in that of `CCOC(=O)[C@]1(COC(=O)Cc2ccc(NC(=O)c3ccc(C)cc3-c3ccc(C(C)(C)C)cc3)c(C(=O)N(C)C)c2)c2ccccc2C(=O)N1C` [Example 68, ethyl (1R)-1-({2-[4-{[(4′-tert-butyl-5-methylbiphenyl-2-yl)carbonyl]amino}-3-(dimethylcarbamoyl)phenyl]acetoxy}methyl)-2-methyl-3-oxoisoindoline-1-carboxylate], 0.178 nM.
